Results reported in PubChem BioAssay (NCI).
“And” between values parts separate entries of the source, which are not always exact repeats. Equal entries are not always repeated.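 Test compounds were applied to cells in 96-well plates for 48 hours at 5 doses. GI50 = concentration required for 50% inhibition of growth. The concentration for full growth arrest is given as TGI.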

Assays:
Assay in all cases: inhibition of tumour cell growth, NCI panel, 48 h
SK-MEL-5 melanoma = test system: SK-MEL-5 melanoma
EKVX NSCLC = test system: EKVX NSCLC
HOP-18 NSCLC = test system: HOP-18 NSCLC
SK-MEL-2 melanoma = test system: SK-MEL-2 melanoma
CAKI-1 renal = test system: CAKI-1 renal
U251 CNS = test system: U251 CNS
LXFL 529 NSCLC = test system: LXFL 529 NSCLC
OVCAR-8 ovarian = test system: OVCAR-8 ovarian
CCRF-CEM leukemia = test system: CCRF-CEM leukemia
SNB-78 CNS = test system: SNB-78 CNS

Compound	TGI (SK-MEL-5 melanoma)	TGI (EKVX NSCLC)	TGI (HOP-18 NSCLC)	TGI (SK-MEL-2 melanoma)	TGI (CAKI-1 renal)	TGI (U251 CNS)	TGI (LXFL 529 NSCLC)	TGI (OVCAR-8 ovarian)	TGI (CCRF-CEM leukemia)	TGI (SNB-78 CNS)	GI50 (SK-MEL-5 melanoma)	GI50 (EKVX NSCLC)	GI50 (HOP-18 NSCLC)	GI50 (SK-MEL-2 melanoma)	GI50 (CAKI-1 renal)	GI50 (U251 CNS)	GI50 (LXFL 529 NSCLC)	GI50 (OVCAR-8 ovarian)	GI50 (CCRF-CEM leukemia)	GI50 (SNB-78 CNS)
CCOC(=O)C1=C(Nc2ccc(Cl)c(Cl)c2)OC/C1=N\NS(=O)(=O)c1ccc(C)cc1	> 100 µM	> 100 µM	> 100 µM	> 100 µM	> 100 µM	> 100 µM	> 100 µM	> 100 µM	> 100 µM	> 100 µM	–	–	–	–	–	–	–	–	–	–
Cc1cc(Cl)ccc1C1OC(=O)c2c1ccc1ccccc21 (stereo not given)	> 100 µM	> 100 µM	–	> 100 µM	> 100 µM	> 100 µM	> 100 µM	> 100 µM	> 100 µM	–	–	–	–	–	–	–	–	–	–	–
O=C(NS(=O)(=O)c1ccccc1)C(Cc1ccccc1)C(Cc1ccccc1)C(=O)NS(=O)(=O)c1ccccc1 (stereo not given)	> 100 µM	> 100 µM	> 100 µM	> 100 µM	> 100 µM	> 100 µM	> 100 µM	> 100 µM	> 100 µM	–	–	–	–	–	–	–	–	–	–	–
Nn1c(N=Nc2c(O)[nH]c3c(Cl)cc(Cl)cc23)n[nH]c1=S	> 100 µM	> 100 µM	> 100 µM	> 100 µM	> 100 µM	> 100 µM	> 100 µM	> 100 µM	> 100 µM	> 100 µM	–	–	–	–	–	–	–	–	–	–
COc1ccc2c(c1OC)C(=O)c1cnccc1C2=O	> 100 µM	> 100 µM	> 100 µM	> 100 µM	> 100 µM	> 100 µM	> 100 µM	> 100 µM	> 100 µM	> 100 µM	–	–	–	–	–	–	–	–	–	–
Cc1cccc(C(C)(C)C)c1NC(=O)CC1Sc2ccccc2NC1=O (stereo not given)	> 100 µM	> 100 µM	> 100 µM	–	> 100 µM	> 100 µM	> 100 µM	> 100 µM	> 100 µM	–	–	–	–	–	–	–	–	–	–	–
O=C1C=CC(CC(=O)c2ccc3ccccc3c2)O1 (stereo not given)	> 100 µM	> 100 µM	> 100 µM	47.5 µM	> 100 µM	32.1 µM	32.3 µM	32.8 µM	63.4 µM	> 100 µM	–	–	–	–	–	–	–	–	–	–
O=[N+]([O-])c1cccc(C2=NOC3C4CCC(C4)C23)c1 (stereo not given)	> 100 µM	–	> 100 µM	> 100 µM	–	> 100 µM	> 100 µM	> 100 µM	–	–	–	–	–	–	–	–	–	–	–	–
O=C(O)c1ccccc1NC(=O)C1CCCCC1	> 100 µM	> 100 µM	–	> 100 µM	–	> 100 µM	> 100 µM	> 100 µM	> 100 µM	> 100 µM	–	–	–	–	–	–	–	–	–	–
CCC(Oc1ccc(OC)c2ccccc(=O)c12)C(=O)O (stereo not given)	> 100 µM	> 100 µM	–	> 100 µM	–	> 100 µM	> 100 µM	> 100 µM	> 100 µM	> 100 µM	–	–	–	–	–	–	–	–	–	–
O=C(Nc1ccn(CCI)c(=O)n1)c1ccccc1	> 100 µM	> 100 µM	> 100 µM	> 100 µM	> 100 µM	> 100 µM	> 100 µM	> 100 µM	> 100 µM	> 100 µM	–	–	–	–	–	–	–	–	–	–
CCCCCCC(/C=N/O)C(C)(O)CCC (stereo not given)	> 100 µM	> 100 µM	–	> 100 µM	> 100 µM	> 100 µM	> 100 µM	> 100 µM	> 100 µM	> 100 µM	–	–	–	–	–	–	–	–	–	–
[Cl][Cd][Cl]	3.31 µM and 22.4 µM and 5.9 µM	52 µM and 19.9 µM	> 62.1 µM	24.8 µM and 18.9 µM	34.8 µM and 22.2 µM	20.3 µM and 40.1 µM	28.4 µM	272 µM	56.7 µM and 89.7 µM	56.9 µM	1.18 µM and 3.62 µM and 0.518 µM	24.7 µM and 9.95 µM	> 42.3 µM	16.4 µM and 8.88 µM	17.7 µM and 10.9 µM	14.7 µM and 13.6 µM	13.3 µM	119 µM	20.7 µM and 9.08 µM	21.3 µM
COC(=O)C1=CC2OC1(C)CCC2=O (stereo not given)	–	> 100 µM	–	> 100 µM	> 100 µM	> 100 µM	> 100 µM	> 100 µM	> 100 µM	–	–	–	–	–	–	–	–	–	–	–
O=C1c2nc3n(c2C(=O)c2c1nc1n2CCC1)CCC3	3.05 µM and 2.78 µM	31.2 µM	27.2 µM	13.5 µM	23.9 µM	34 µM	21.5 µM	22.5 µM	31.4 µM	31.1 µM	1.68 µM	–	–	4.39 µM	–	–	–	7.87 µM	–	–
O=C(NO)c1ccc(O)c(O)c1	> 100 µM	> 100 µM	> 100 µM	–	> 100 µM	> 100 µM	> 100 µM	> 100 µM	> 100 µM	> 100 µM	–	–	–	–	–	–	–	–	–	–
O=S(=O)(C/C(=N\O)c1ccccc1)c1ccccc1	> 100 µM	> 100 µM	> 100 µM	> 100 µM	> 100 µM	> 100 µM	> 100 µM	> 100 µM	> 100 µM	> 100 µM	–	–	–	–	–	–	–	–	–	–
O=[N+]([O-])c1ccc(Cl)cc1C1SCc2nc3ccccc3n21 (stereo not given)	84.6 µM	> 100 µM	> 100 µM	> 100 µM	> 100 µM	> 100 µM	> 100 µM	> 100 µM	> 100 µM	> 100 µM	–	–	–	–	–	–	–	–	–	–
CC(C)c1cc(OCC(O)CO)cc(C(C)C)c1 (stereo not given)	> 100 µM	> 100 µM	> 100 µM	> 100 µM	> 100 µM	> 100 µM	> 100 µM	> 100 µM	> 100 µM	> 100 µM	–	–	–	–	–	–	–	–	–	–
Nc1n[nH]c(CCc2nc(N)n[nH]2)n1	> 100 µM	> 100 µM	–	> 100 µM	> 100 µM	> 100 µM	> 100 µM	> 100 µM	> 100 µM	> 100 µM	–	–	–	–	–	–	–	–	–	–
O=C(CC1C(=O)Nc2ccccc2S1=O)Nc1ccc(Cl)cc1 (stereo not given)	–	–	–	> 100 µM	> 100 µM	> 100 µM	> 100 µM	> 100 µM	–	> 100 µM	–	–	–	–	–	–	–	–	–	–
